Laboratory results as given in DBAASP.
Values after ≈ are worked out from the molar mass of the structure shown.

Experiments:
Assay in all cases: ≥ marks a high value that may be exact or a test limit, other limits are often not marked, values filed in µg/mL are converted to µM
[1] = tested on: Candida albicans ATCC 90028
[2] = tested on: Pseudomonas aeruginosa ATCC 9027
[3] = tested on: Staphylococcus aureus USA 100
[4] = tested on: Staphylococcus aureus USA 300
[5] = tested on: Candida albicans ATCC 2002
[6] = tested on: Escherichia coli ATCC 25922
[7] = tested on: Staphylococcus aureus ATCC 2592
[8] = tested on: Cronobacter muytjensii ATCC 51329
[9] = tested on: Cronobacter sakazakii ATCC BAA-894
[10] = tested on: Cronobacter sakazakii DPC 6440
[11] = tested on: Cronobacter sakazakii DSM 4485
[12] = tested on: Escherichia coli NCIMB 11843
[13] = tested on: Klebsiella pneumoniae NCIMB 13218
[14] = tested on: Pseudomonas fluorescens NCIMB 9046
[15] = tested on: Salmonella enterica subsp. enterica serovar Typhimurium LT2
[16] = tested on: Staphylococcus aureus NCTC 8325-4
[17] = tested on: Staphylococcus aureus Newman
[18] = tested on: Staphylococcus aureus RF122
[19] = tested on: Staphylococcus aureus RN4220
[20] = tested on: Staphylococcus aureus SA113
[21] = tested on: Pseudomonas aeruginosa ATCC 27853
Bacillus subtilis = tested on: Bacillus subtilis

Row | SMILES | MIC [3] | MIC [8] | MIC [9] | MIC [10] | MIC [11] | MIC [12] | MIC [13] | MIC [14] | MIC [15] | MIC [16] | MIC [17] | MIC [18] | MIC [19] | MIC [20] | further results
1 | NC(=O)[C@H](Cc1c[nH]c2ccccc12)NC(=O)[C@H](Cc1c[nH]c2ccccc12)NC(=O)[C@H](Cc1c[nH]c2ccccc12)NC(=O)[C@H](CCCN=C(N)N)NC(=O)[C@H](CCCN=C(N)N)NC(=O)[C@@H](N)CCCN=C(N)N [RRRWWW] | 25 µM (≈ 26.1 µg/mL) | – | – | – | – | – | – | – | – | – | – | – | – | – | MIC [1]: ≥ 100 µM; MIC [2]: 50 µM (≈ 52.2 µg/mL); MIC [4]: 25 µM (≈ 26.1 µg/mL)
2 | NCCCC[C@H](NC(=O)[C@H](Cc1c[nH]c2ccccc12)NC(=O)[C@H](CCCCN)NC(=O)[C@H](Cc1c[nH]c2ccccc12)NC(=O)[C@H](Cc1c[nH]c2ccccc12)NC(=O)[C@H](CCCCN)NC(=O)[C@H](Cc1c[nH]c2ccccc12)NC(=O)[C@@H](N)CCCCN)C(N)=O [KWKWWKWK] | 12.5 µM (≈ 15.9 µg/mL) | – | – | – | – | – | – | – | – | – | – | – | – | – | MIC [1]: ≥ 100 µM; MIC [2]: 50 µM (≈ 63.7 µg/mL); MIC [4]: 6.25 µM (≈ 7.97 µg/mL)
3 | CC[C@H](C)[C@H](NC(=O)CNC(=O)[C@H](Cc1c[nH]c2ccccc12)NC(=O)[C@H](C)NC(=O)[C@H](CCCCN)NC(=O)[C@H](C)N)C(=O)NCC(=O)NCC(=O)N[C@@H](Cc1cnc[nH]1)C(=O)N[C@H](C(=O)N[C@H](C(=O)NCC(=O)N[C@@H](CCC(N)=O)C(=O)N[C@H](C(=O)N[C@H](C(=O)NCC(=O)N[C@H](C(=O)N[C@@H](CCCN=C(N)N)C(=O)N[C@H](C(=O)N[C@@H](CCCN=C(N)N)C(=O)NCC(=O)N[C@@H](CC(C)C)C(=O)N[C@@H](CS)C(=O)NCC(=O)N[C@@H](CC(N)=O)C(=O)N[C@H](C(=O)O)C(C)C)[C@@H](C)CC)C(C)C)C(C)C)[C@@H](C)CC)[C@@H](C)CC)C(C)C [AKAWGIGGHVIGQIVGVRIRGLCGNV] | – | – | – | – | – | – | – | – | – | – | – | – | – | – | MIC [5]: 19 µM (≈ 50 µg/mL); MIC [6]: 9.5 µM (≈ 25 µg/mL); MIC [7]: 4.79 µM (≈ 12.6 µg/mL)
4 | CC[C@H](C)[C@H](N)C(=O)N[C@@H](CCCCN)C(=O)N[C@@H](Cc1cnc[nH]1)C(=O)N[C@@H](CCCN=C(N)N)C(=O)NCC(=O)N[C@@H](CC(C)C)C(=O)N1CCC[C@H]1C(=O)N[C@@H](CCC(N)=O)C(=O)N[C@@H](CCC(=O)O)C(=O)O [IKHRGLPQE] | – | ≥ 1250 µM | ≥ 2500 µM | ≥ 312 µM | ≥ 2500 µM | ≥ 1250 µM | ≥ 1250 µM | ≥ 2500 µM | ≥ 1250 µM | ≥ 1250 µM | ≥ 1250 µM | ≥ 625 µM | ≥ 1250 µM | ≥ 1250 µM | –
5 | CC[C@H](C)[C@H](N)C(=O)N[C@@H](CCCN=C(N)N)C(=O)N[C@@H](Cc1cnc[nH]1)C(=O)N[C@@H](CCC(N)=O)C(=O)NCC(=O)N[C@@H](CC(C)C)C(=O)N1CCC[C@H]1C(=O)N[C@@H](CCC(N)=O)C(=O)N[C@@H](CCC(=O)O)C(=O)O [IRHQGLPQE] | – | ≥ 1250 µM | ≥ 625 µM | ≥ 1250 µM | ≥ 1250 µM | ≥ 1250 µM | ≥ 2500 µM | ≥ 1250 µM | ≥ 2500 µM | ≥ 2500 µM | ≥ 2500 µM | ≥ 625 µM | ≥ 2500 µM | ≥ 2500 µM | –
6 | NC(=O)[C@H](CCCN=C(N)N)NC(=O)[C@H](Cc1cnc[nH]1)NC(=O)[C@H](CCCN=C(N)N)NC(=O)[C@@H](N)Cc1cnc[nH]1 [HRHR] | ≥ 100 µM | – | – | – | – | – | – | – | – | – | – | – | – | – | –
7 | CC(C)C[C@H](NC(=O)[C@H](CC(C)C)NC(=O)[C@H](CC(N)=O)NC(=O)[C@H](CCC(=O)O)NC(=O)[C@H](CC(N)=O)NC(=O)[C@H](CC(C)C)NC(=O)[C@@H](N)C(C)C)C(=O)N[C@@H](Cc1cnc[nH]1)C(=O)O [VLNENLLH] | – | ≥ 1250 µM | ≥ 1250 µM | ≥ 1250 µM | ≥ 1250 µM | ≥ 2500 µM | ≥ 1250 µM | ≥ 1250 µM | ≥ 2500 µM | ≥ 1250 µM | ≥ 1250 µM | ≥ 1250 µM | ≥ 1250 µM | ≥ 1250 µM | MIC [21]: 32 µM (≈ 30.4 µg/mL)
8 | CC(C)C[C@H](NC(=O)[C@H](CC(C)C)NC(=O)[C@H](CC(N)=O)NC(=O)[C@H](C)NC(=O)[C@H](CC(N)=O)NC(=O)[C@H](CC(C)C)NC(=O)[C@@H](N)C(C)C)C(=O)N[C@@H](CCCN=C(N)N)C(=O)O [VLNANLLR] | – | ≥ 2500 µM | ≥ 2500 µM | ≥ 1250 µM | ≥ 1250 µM | ≥ 2500 µM | ≥ 2500 µM | ≥ 1250 µM | ≥ 2500 µM | ≥ 1250 µM | ≥ 1250 µM | ≥ 1250 µM | ≥ 1250 µM | ≥ 1250 µM | MIC [21]: 32 µM (≈ 29.2 µg/mL)
9 | NCCCC[C@H](NC(=O)[C@H](CCCN=C(N)N)NC(=O)[C@@H](N)CCCCN)C(=O)N[C@@H](CCCN=C(N)N)C(N)=O [KRKR] | ≥ 100 µM | – | – | – | – | – | – | – | – | – | – | – | – | – | –
10 | CC(C)C[C@H](NC(=O)CNC(=O)[C@H](Cc1ccccc1)NC(=O)[C@H](CC(C)C)NC(=O)[C@H](CCCN=C(N)N)NC(=O)[C@H](CC(C)C)NC(=O)[C@H](Cc1c[nH]c2ccccc12)NC(=O)CNC(=O)CNC(=O)[C@H](CO)NC(=O)[C@H](CCCCN)NC(=O)[C@H](CC(C)C)NC(=O)[C@H](C)NC(=O)[C@@H](N)CC(C)C)C(=O)N[C@@H](CCCCN)C(=O)N[C@@H](CC(=O)O)C(=O)N[C@@H](CCCCN)C(=O)N[C@@H](CCCCN)C(=O)N[C@@H](Cc1cnc[nH]1)C(N)=O [LALKSGGWLRLFGLKDKKH] | – | – | – | – | – | – | – | – | – | – | – | – | – | – | MIC [5]: ≥ 35 µM; MIC [6]: 35 µM (≈ 75.8 µg/mL); MIC [2]: 9 µM (≈ 19.5 µg/mL); MIC [7]: 17 µM (≈ 36.8 µg/mL)
11 | CC[C@H](C)[C@H](NC(=O)[C@H](C)NC(=O)[C@H](CS)NC(=O)[C@@H](NC(=O)[C@@H](NC(=O)[C@@H](NC(=O)CNC(=O)[C@@H](NC(=O)[C@@H](NC(=O)[C@@H](NC(=O)[C@H](C)NC(=O)[C@H](Cc1ccccc1)NC(=O)[C@H](CC(C)C)NC(=O)[C@H](CCCN=C(N)N)NC(=O)[C@H](CCCN=C(N)N)NC(=O)[C@H](CC(C)C)NC(=O)CNC(=O)CNC(=O)[C@@H](NC(=O)[C@@H](N)Cc1ccccc1)[C@@H](C)CC)[C@@H](C)O)C(C)C)C(C)C)[C@@H](C)O)C(C)C)C(C)C)C(=O)N[C@@H](CC(N)=O)C(=O)N[C@@H](CCCCN)C(=O)N[C@@H](CC(C)C)C(=O)NCC(=O)NCC(=O)NCC(=O)O [FIGGLRRLFATVVGTVVCAINKLGGG] | – | – | – | – | – | – | – | – | – | – | – | – | – | – | MIC (Bacillus subtilis): ≥ 38.2 µM; MIC [5]: 4.77 µM (≈ 12.5 µg/mL); MIC [6]: 4.77 µM (≈ 12.5 µg/mL); MIC [7]: 4.77 µM (≈ 12.5 µg/mL)
12 | CC[C@H](C)[C@H](N)C(=O)N[C@@H](CCCCN)C(=O)N[C@@H](C)C(=O)N[C@@H](CCC(N)=O)C(=O)NCC(=O)N[C@@H](CC(C)C)C(=O)N1CCC[C@H]1C(=O)N[C@@H](CCC(N)=O)C(=O)N[C@@H](CCC(=O)O)C(=O)O [IKAQGLPQE] | – | ≥ 2500 µM | ≥ 2500 µM | ≥ 625 µM | ≥ 2500 µM | ≥ 1250 µM | ≥ 1250 µM | ≥ 1250 µM | ≥ 1250 µM | ≥ 1250 µM | ≥ 1250 µM | ≥ 1250 µM | ≥ 1250 µM | ≥ 1250 µM | –
